Laboratory results from patent US20030004172A1, “Fused pyrimidinone matrix metalloproteinase inhibitors” (priority 2001, published 2003).

Molecular target: MMP-13CD (catalytic domain of collagenase-3) (Homo sapiens, UniProt P45452)
Assay: Thiopeptolide substrate hydrolysis inhibition assay, MMP-13CD
Format: biochemical
Conditions: Table I; thiopeptolide substrate, HEPES pH 7.0, 22° C.; read-out: MMP-13CD IC50
From the text: Thiopeptolide substrates show virtually no decomposition or hydrolysis at or below neutral pH in the absence of a matrix metalloproteinase enzyme.

Structure (SMILES)	IC50
Cn1c(=O)n(Cc2ccccc2)c(=O)c2cc(C(=O)NCc3ccccc3-c3ccccc3)sc21 [Example 323, 3-Benzyl-1-methyl-2,4-dioxo-1,2,3,4-tetrahydro-thieno[2,3-d]pyrimidine-6-carboxylic acid (biphenyl-2-ylmethyl)-amide]	> 100 µM
COc1ccc(CNC(=O)c2cc3c(=O)n(Cc4ccccc4)c(=O)n(C)c3s2)cc1OC [Example 324, 3-Benzyl-1-methyl-2,4-dioxo-1,2,3,4-tetrahydro-thieno[2,3-d]pyrimidine-6-carboxylic acid 3,4-dimethoxy-benzylamide]	> 100 µM
Cn1c(=O)n(Cc2ccccc2)c(=O)c2cc(C(=O)NCc3ccc(F)c(Cl)c3)sc21 [Example 328, 3-Benzyl-1-methyl-2,4-dioxo-1,2,3,4-tetrahydro-thieno[2,3-d]pyrimidine-6-carboxylic acid 3-chloro-4-fluoro-benzylamide]	2.7 µM
Cn1c(=O)n(Cc2ccccc2)c(=O)c2cc(C(=O)NCc3ccc(Cl)cc3Cl)sc21 [Example 329, 3-Benzyl-1-methyl-2,4-dioxo-1,2,3,4-tetrahydro-thieno[2,3-d]pyrimidine-6-carboxylic acid 2,4-dichloro-benzylamide]	30 µM
COc1cc(CNC(=O)c2cc3c(=O)n(Cc4ccccc4)c(=O)n(C)c3s2)cc(OC)c1OC [Example 331, 3-Benzyl-1-methyl-2,4-dioxo-1,2,3,4-tetrahydro-thieno[2,3-d]pyrimidine-6-carboxylic acid 3,4,5-trimethoxy-benzylamide]	> 100 µM
COc1cc(CNC(=O)c2cc3c(=O)n(Cc4ccccc4)c(=O)n(C)c3s2)cc(OC)c1 [Example 333, 3-Benzyl-1-methyl-2,4-dioxo-1,2,3,4-tetrahydro-thieno[2,3-d]pyrimidine-6-carboxylic acid 3,5-dimethoxy-benzylamide]	> 100 µM
COc1cccc(CNC(=O)c2cc3c(=O)n(Cc4ccccc4)c(=O)n(C)c3s2)c1OC [Example 334, 3-Benzyl-1-methyl-2,4-dioxo-1,2,3,4-tetrahydro-thieno[2,3-d]pyrimidine-6-carboxylic acid 2,3-dimethoxy-benzylamide]	> 100 µM
Cn1c(=O)n(Cc2ccccc2)c(=O)c2cc(C(=O)NCc3cccc(C(F)(F)F)c3)sc21 [Example 335, 3-Benzyl-1-methyl-2,4-dioxo-1,2,3,4-tetrahydro-thieno[2,3-d]pyrimidine-6-carboxylic acid 3-trifluoromethyl-benzylamide]	0.25 µM
COc1ccccc1CNC(=O)c1cc2c(=O)n(Cc3ccccc3)c(=O)n(C)c2s1 [Example 336, 3-Benzyl-1-methyl-2,4-dioxo-1,2,3,4-tetrahydro-thieno[2,3-d]pyrimidine-6-carboxylic acid 2-methoxy-benzylamide]	30 µM
Cn1c(=O)n(Cc2ccccc2)c(=O)c2cc(C(=O)NCc3cccnc3)sc21 [Example 339, 3-Benzyl-1-methyl-2,4-dioxo-1,2,3,4-tetrahydro-thieno[2,3-d]pyrimidine-6-carboxylic acid (pyridin-3-ylmethyl)-amide]	0.38 µM
COc1ccc(CNC(=O)c2cc3c(=O)n(Cc4ccccc4)c(=O)n(C)c3s2)cc1 [Example 340, 3-Benzyl-1-methyl-2,4-dioxo-1,2,3,4-tetrahydro-thieno[2,3-d]pyrimidine-6-carboxylic acid 4-methoxy-benzylamide]	0.12 µM
COc1cccc(CNC(=O)c2cc3c(=O)n(Cc4ccccc4)c(=O)n(C)c3s2)c1 [Example 343, 3-Benzyl-1-methyl-2,4-dioxo-1,2,3,4-tetrahydro-thieno[2,3-d]pyrimidine-6-carboxylic acid 3-methoxy-benzylamide]	0.044 µM
Cn1c(=O)n(Cc2ccccc2)c(=O)c2cc(C(=O)NCc3cccs3)sc21 [Example 344, 3-Benzyl-1-methyl-2,4-dioxo-1,2,3,4-tetrahydro-thieno[2,3-d]pyrimidine-6-carboxylic acid (thiophen-2-ylmethyl)-amide]	3.6 µM
Cc1ccc(CNC(=O)c2cc3c(=O)n(Cc4ccccc4)c(=O)n(C)c3s2)o1 [Example 346, 3-Benzyl-1-methyl-2,4-dioxo-1,2,3,4-tetrahydro-thieno[2,3-d]pyrimidine-6-carboxylic acid (5-methyl-furan-2-ylmethyl)-amide]	9.9 µM
Cn1c(=O)n(Cc2ccccc2)c(=O)c2cc(C(=O)NCC(c3ccccc3)c3ccccc3)sc21 [Example 347, 3-Benzyl-1-methyl-2,4-dioxo-1,2,3,4-tetrahydro-thieno[2,3-d]pyrimidine-6-carboxylic acid (2,2-diphenyl-ethyl)-amide]	16 µM

Further lines, results first:

IC50	Structure (SMILES)
> 100 µM	Cn1c(=O)n(Cc2ccccc2)c(=O)c2cc(C(=O)NCCc3ccc(Cl)cc3)sc21 [Example 322, 3-Benzyl-1-methyl-2,4-dioxo-1,2,3,4-tetrahydro-thieno[2,3-d]pyrimidine-6-carboxylic acid[2-(4-chloro-phenyl)-ethyl]-amide]
> 100 µM	Cn1c(=O)n(Cc2ccccc2)c(=O)c2cc(C(=O)NCCc3ccncc3)sc21 [Example 325, 3-Benzyl-1-methyl-2,4-dioxo-1,2,3,4-tetrahydro-thieno[2,3-d]pyrimidine-6-carboxylic acid (2-pyridin-4-yl-ethyl)-amide]
2.8 µM	CCOc1cccc(CCNC(=O)c2cc3c(=O)n(Cc4ccccc4)c(=O)n(C)c3s2)c1 [Example 327, 3-Benzyl-1-methyl-2,4-dioxo-1,2,3,4-tetrahydro-thieno[2,3-d]pyrimidine-6-carboxylic acid[2-(3-ethoxy-phenyl)-ethyl]-amide]
> 100 µM	CC(CNC(=O)c1cc2c(=O)n(Cc3ccccc3)c(=O)n(C)c2s1)c1ccccc1 (stereo not drawn) [Example 330, 3-Benzyl-1-methyl-2,4-dioxo-1,2,3,4-tetrahydro-thieno[2,3-d]pyrimidine-6-carboxylic acid (2-phenyl-propyl)-amide]
1 µM	Cn1c(=O)n(Cc2ccccc2)c(=O)c2cc(C(=O)NCc3cccc(Cl)c3)sc21 [Example 332, 3-Benzyl-1-methyl-2,4-dioxo-1,2,3,4-tetrahydro-thieno[2,3-d]pyrimidine-6-carboxylic acid 3-chloro-benzylamide]
> 100 µM	Cc1ccccc1CNC(=O)c1cc2c(=O)n(Cc3ccccc3)c(=O)n(C)c2s1 [Example 337, 3-Benzyl-1-methyl-2,4-dioxo-1,2,3,4-tetrahydro-thieno[2,3-d]pyrimidine-6-carboxylic acid 2-methyl-benzylamide]
> 100 µM	Cn1c(=O)n(Cc2ccccc2)c(=O)c2cc(C(=O)NCCCCc3ccccc3)sc21 [Example 338, 3-Benzyl-1-methyl-2,4-dioxo-1,2,3,4-tetrahydro-thieno[2,3-d]pyrimidine-6-carboxylic acid (4-phenyl-butyl)-amide]
> 100 µM	COc1cccc(CCNC(=O)c2cc3c(=O)n(Cc4ccccc4)c(=O)n(C)c3s2)c1 [Example 342, 3-Benzyl-1-methyl-2,4-dioxo-1,2,3,4-tetrahydro-thieno[2,3-d]pyrimidine-6-carboxylic acid[2-(3-methoxy-phenyl)-ethyl]-amide]
30 µM	Cn1c(=O)n(Cc2ccccc2)c(=O)c2cc(C(=O)NCc3ccccc3Cl)sc21 [Example 345, 3-Benzyl-1-1-methyl-2,4-dioxo-1,2,3,4-tetrahydro-thieno[2,3-d]pyrimidine-6-carboxylic acid 2-chloro-benzylamide]
